The source made the active and inactive calls. No cut-off for these calls is given here.
Legend:
HCT-116 [1] = assay: Antiproliferative activity against p53 deficient human HCT116 cells after 72 hrs by MTT assay; format: functional, cell-based; conditions: HCT-116, 72 h
T-24 [2] = assay: Induction of reactive oxygen species generation in human T24 cells at 1 uM after 30 mins by H2DCFDA dye-based flow cytometric method; format: functional, cell-based
T-24 [3] = assay: Induction of apoptosis n human T24 cells assessed as PARP cleavage at 0.5 to 1 uM after 18 hrs by Western blot method; format: functional, cell-based
HMEC-1 = assay: Antiproliferative activity against HMEC1 cells after 72 hrs by MTT assay; format: cell-based; conditions: Homo sapiens, HMEC-1, 72 h
T-24 [4] = assay: Induction of apoptosis n human T24 cells assessed as upregulation of Bak levels at 0.5 to 1 uM after 18 hrs by Western blot method; format: functional, cell-based
T-24 [5] = assay: Growth inhibition of human T24 cells after 72 hrs by cell impedance method; format: functional, cell-based; conditions: T-24, 72 h
HeLa = assay: Antiproliferative activity against human HeLa cells after 72 hrs by MTT assay; format: functional, cell-based
Calf thymus DNA [6] = assay: Binding affinity to calf thymus DNA; format: nucleic-acid assay; conditions: Bos taurus
Calf thymus DNA [7] = assay: Binding affinity to calf thymus double stranded DNA at 10 uM by fluorescence spectrophotometer; format: nucleic-acid assay; conditions: Bos taurus
T-24 [8] = assay: Induction of apoptosis n human T24 cells at 1 uM after 24 hrs by annexin V-FITC/propidium iodide staining-based flow cytometric method; format: functional, cell-based
T-24 [9] = assay: Induction of apoptosis n human T24 cells assessed as downregulation of Bcl-2 levels at 0.5 to 1 uM after 18 hrs by Western blot method; format: functional, cell-based
[10] = target: T1, DNA topoisomerase 1 (Homo sapiens) (UniProt P11387); assay: Inhibition of human DNA topoisomerase 1 assessed as decrease in relaxation of pBR322 at 20 uM after 30 to 40 mins by agarose gel electrophoresis
T1 sequence (whole entry): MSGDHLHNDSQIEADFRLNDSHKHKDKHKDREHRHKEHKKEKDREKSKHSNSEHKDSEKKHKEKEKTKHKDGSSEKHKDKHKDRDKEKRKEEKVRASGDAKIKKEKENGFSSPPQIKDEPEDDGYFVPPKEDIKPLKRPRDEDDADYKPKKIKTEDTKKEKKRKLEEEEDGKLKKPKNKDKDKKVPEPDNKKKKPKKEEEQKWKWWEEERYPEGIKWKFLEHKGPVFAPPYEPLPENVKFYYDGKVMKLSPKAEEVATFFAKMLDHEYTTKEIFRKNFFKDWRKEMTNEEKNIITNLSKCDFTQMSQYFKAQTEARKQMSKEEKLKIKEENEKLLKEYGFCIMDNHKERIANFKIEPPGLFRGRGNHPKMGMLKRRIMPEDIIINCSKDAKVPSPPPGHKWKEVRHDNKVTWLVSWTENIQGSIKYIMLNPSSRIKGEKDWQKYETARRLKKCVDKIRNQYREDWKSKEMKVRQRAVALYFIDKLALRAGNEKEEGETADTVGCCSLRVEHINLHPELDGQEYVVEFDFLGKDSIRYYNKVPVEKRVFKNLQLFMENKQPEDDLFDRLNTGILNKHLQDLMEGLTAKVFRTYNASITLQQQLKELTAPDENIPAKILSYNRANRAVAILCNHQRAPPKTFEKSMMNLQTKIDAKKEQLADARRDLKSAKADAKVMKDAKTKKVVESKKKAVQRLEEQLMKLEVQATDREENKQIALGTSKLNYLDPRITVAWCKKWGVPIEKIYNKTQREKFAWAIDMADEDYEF

L1210 = assay: Antiproliferative activity against mouse L1210 cells after 72 hrs by MTT assay; format: functional, cell-based; conditions: L1210, 72 h
CCRF-CEM = assay: Antiproliferative activity against human CEM cells after 72 hrs by MTT assay; format: functional, cell-based
K562 = assay: Antiproliferative activity against human K562 cells after 72 hrs by MTT assay; format: functional, cell-based; conditions: K562, 72 h
[11] = Antiproliferative activity against human K562/4 cells after 72 hrs by MTT assay; format: functional, cell-based; conditions: K562/4, 72 h
HCT-116 [12] = assay: Antiproliferative activity against human HCT116 cells after 72 hrs by MTT assay; format: functional, cell-based; conditions: HCT-116, 72 h
T-24 [13] = assay: Upregulation of total p53 levels in human T24 cells at 0.5 to 1 uM after 18 hrs by Western blot method; format: cell-based; conditions: t-24, 18 h
[14] = Resistance index, ratio of IC50 for human K562/4 cells to IC50 for human K562 cells; format: functional

SMILES | IC50 (HCT-116 [1]) [nM] | Activity (T-24 [2]) | Activity (T-24 [3]) | IC50 (HMEC-1) [nM] | Activity (T-24 [4]) | IC50 (T-24 [5]) [µM] | IC50 (HeLa) [nM] | Kb (Calf thymus DNA [6]) [×10⁴ /M] | Activity (Calf thymus DNA [7]) | Activity (T-24 [8]) | Activity (T-24 [9]) | inhibition [10] | IC50 (L1210) [nM] | IC50 (CCRF-CEM) [nM] | IC50 (K562) [nM] | IC50 [11] [µM] | IC50 (HCT-116 [12]) [nM] | Activity (T-24 [13]) | Ratio IC50 [14]
Cc1cc(O)c2c3c4c(cc(O)c13)C(C)(C)C(=O)c1c(O)cc(O)c(c1-4)C2=O [HELIOMYCIN] | 100 | inactive | inactive | 500 | inactive | 26 | 100 | 1.1 | inactive | inactive | inactive | inactive | 700 | 500 | 300 | 0.4 | 300 | Toxic | 
Cc1cc(O)c2c3c4c(cc(O)c13)C(C)(C)C(=O)c1c(O)c(CNCCO)c(O)c(c1-4)C2=O | 1000 |  |  |  |  |  | 3600 |  |  |  |  |  | 3800 | 3300 | 1300 | 19.4 | 500 |  | 20
